Assay results from paper PMC8831383, “Visualization-Based Discovery of Vanin-1 Inhibitors for Colitis” (Frontiers in Chemistry, 2022).

Tests used:
[1] = tested on: vanin-1; parameters: method as in Jansen et al., 2013; conditions: ref Jansen et al., 2013; cited from earlier work
[2] = target: T1, Vanin-1 enzyme (Homo sapiens, UniProt O95497); experiment: Inhibition of Vanin-1 enzyme at the cellular level in ES-2-Fluc cells with bioluminescent probe PA-AL; format: cell-based; conditions: 30 min incubation with inhibitor, probe PA-AL 20 μM
T1 construct: endogenous in cells; host or cells: ES-2-Fluc (human ovarian cancer cells expressing firefly luciferase)
T1 sequence (O95497 22-513): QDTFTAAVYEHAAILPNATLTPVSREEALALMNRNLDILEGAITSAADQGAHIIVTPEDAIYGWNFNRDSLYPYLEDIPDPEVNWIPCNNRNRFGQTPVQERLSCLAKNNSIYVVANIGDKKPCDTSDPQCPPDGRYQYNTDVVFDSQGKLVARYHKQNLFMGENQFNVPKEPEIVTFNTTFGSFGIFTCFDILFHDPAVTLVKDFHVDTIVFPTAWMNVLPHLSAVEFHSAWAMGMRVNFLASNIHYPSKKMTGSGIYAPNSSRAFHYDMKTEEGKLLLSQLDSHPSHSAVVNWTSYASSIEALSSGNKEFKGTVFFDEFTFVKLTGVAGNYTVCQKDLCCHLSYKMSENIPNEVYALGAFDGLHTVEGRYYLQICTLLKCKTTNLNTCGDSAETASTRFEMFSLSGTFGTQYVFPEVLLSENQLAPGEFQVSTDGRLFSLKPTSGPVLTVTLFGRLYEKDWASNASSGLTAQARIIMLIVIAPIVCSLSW
Procedure: This study explores the inhibition of Vanin-1 enzyme at the cellular level using firefly luciferase labeled human ovarian cancer cells (ES-2-Fluc) and the bioluminescent probe PA-AL.
Take a black 96-well plate with a transparent bottom, dilute the cells to a cell suspension with a concentration of 4 × 10^5 cells/ml, add 100 μl to each well to reach about 40,000 cells in each well, and incubate at 37°C for 12 h. Dilute the lead compound and each inhibitor to be tested to the final concentration of 200, 100, 50, 25, 12.50, 6.25, 3.13, 1.56, and 0.78 μM, and add 100 μl to each well. After mixing, transfer to a shaker at 37°C and incubate the cells with the inhibitor for 30 min. Prepare bioluminescent probe PA-AL solution with a concentration of 20 μM. Immediately after adding, put it into in vivo imaging for bioluminescence imaging. The bioluminescence intensity value of each hole was analyzed by the software of the living body imager, and the exposure time was 1 min. Graphpad Prism software is used to draw the IC50 value of each inhibitor to be tested.

[3] = target: T2, vanin-1 enzyme (Mus musculus, UniProt Q9Z0K8); experiment: Inhibition of vanin-1 in transgenic mice in vivo, bioluminescence imaging with probe PA-AL; parameters: species or system FVB-luc + mice; conditions: gavage, lead compound 25 mg/kg, compound a 50 mg/kg, PA-AL i.p. 1.5 h later
T2 construct: from tissue; host or cells: whole living FVB-luc+ transgenic mice
T2 sequence (Q9Z0K8 24-512): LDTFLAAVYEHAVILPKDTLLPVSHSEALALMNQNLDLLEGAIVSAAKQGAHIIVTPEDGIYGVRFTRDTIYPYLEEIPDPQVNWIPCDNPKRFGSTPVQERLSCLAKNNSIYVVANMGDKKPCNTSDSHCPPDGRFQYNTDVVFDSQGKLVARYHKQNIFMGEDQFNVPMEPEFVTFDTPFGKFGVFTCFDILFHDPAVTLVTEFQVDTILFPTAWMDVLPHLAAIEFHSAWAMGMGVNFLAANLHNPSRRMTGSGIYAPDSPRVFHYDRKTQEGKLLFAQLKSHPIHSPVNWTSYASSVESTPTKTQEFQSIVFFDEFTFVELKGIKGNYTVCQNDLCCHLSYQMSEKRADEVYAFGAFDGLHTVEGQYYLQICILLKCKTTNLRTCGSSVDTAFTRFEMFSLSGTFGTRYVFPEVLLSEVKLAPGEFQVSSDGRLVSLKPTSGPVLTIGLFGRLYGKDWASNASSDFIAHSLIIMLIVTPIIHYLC
Procedure: We divided FVB-luc + mice into three groups: • (1) Control group: gavage lead compound, the dose is 25 mg/kg, the gavage volume is 200 μl; • (2) Experimental group: gavage compound a, the dose is 50 mg/kg, the gavage volume is 200 μl; • (3) Blank group: Administer normal saline, the volume of intragastric administration is 200 μl.
After intragastric administration, mice were fed routinely for 1.5 h, and then mice in each group were anesthetized with 4% chloral hydrate solution and injected intraperitoneally with physiological saline solution of bioluminescent probe PA-AL (1 mM, 200 μl). In 55 min, the bioluminescence imaging of the whole body of each group of mice was measured every 5 min, and then the bioluminescence intensity was obtained by analyzing the images with the software of the in vivo imager.

[4] = target: T3, human recombinant VNN1 enzyme (Homo sapiens, UniProt O95497); experiment: Inhibitory activity against human recombinant VNN1 enzyme in vitro with fluorescent probe PA-AFC; format: biochemical; conditions: human recombinant VNN1 30 ng/ml, probe PA-AFC 20 μM, 37°C, 30 min + 30 min
T3 sequence (O95497 22-513): T1 sequence (O95497 22-513)
Procedure: This study was used human recombinant VNN1 enzyme and fluorescent probe PA-AFC to determine the IC50 value of inhibitors.
Dilute the lead compound and each inhibitor to be tested with buffer to, for example, 400, 200, 100, 50, 25, 12.50, 6.25, 3.13, and 1.56 μM, 781 nM, 391 nM The gradient concentration of the solution. Prepare the human recombinant VNN1 enzyme solution at a concentration of 30 ng/ml. Prepare the fluorescent probe PA-AFC solution with a concentration of 20 μM.
Add 50 μl of gradient concentration of the inhibitor to be tested to each well of the black 96-well plate, and then continue to add 50 μl of the newly prepared human recombinant VNN1 enzyme solution to each well. Among them, the control group and the blank group were replaced with the same volume of buffer. After the solution is mixed, place the black 96-well plate on a shaker at 37°C for 30 min. Continue to add 100 μl of the prepared fluorescent probe solution to each well of the black 96-well plate. After mixing, place the black 96-well plate on a shaker at 37°C and incubate for 30 min. Take the black 96-well plate out of the shaker and place it in a POLARstar Omega microplate reader. Use a 420 nm filter for the excitation light and a 510 nm filter for the emission light. Record the fluorescence intensity data at 510 nm. Through GraphpadPrism mapping, the IC50 value of each inhibitor to be tested was obtained.

[5] = tested on: TNBS-induced mouse colitis model; experiment: TNBS-induced mouse colitis model; format: in vivo, C57BL/6J mice; conditions: TNBS colitis mice; lead compound 25 mg/kg, compound a 50 mg/kg once a day, 8 days; TNBS model group 10.0 ± 1.63
Procedure: The dose of TNBS used in this experiment is 2.0 mg/50% alcohol enema, each with a volume of 100 μl. The preparation method is 40 μl of 5% TNBS (w/v) aqueous solution, 50 μl of absolute ethanol, and 10 μl of distilled water. well mixed.
The study bred C57BL/6J mice adaptively with ordinary diet for 1 week, in an ordinary clean environment, normal light and free drinking water. The mice were randomly divided into 3 groups and numbered, fasted without water for 24 h before modeling. After weighing the mouse, use isoflurane anesthesia, insert a rubber hose with a diameter of about 0.2–0.3 cm into the mouse 3.5 cm from the anus, and slowly push 100 μl of the 2.0 mg TNBS/50% alcohol mixture solution through the hose Enter the colon, slowly pull out the plastic tube after the administration, pinch the anus with your hand, and invert it for 1 min, so that the model agent can fully penetrate the intestinal cavity of the mouse. Then put them back into the breeding cage to keep lying down, wait for the mice to wake up naturally, and create a model together. The mice in the control group were given 200 μl of lead compound solution (25 mg/kg) once a day, the mice in the experimental group were given 200 μl of compound 1c solution (50 mg/kg) once a day, and the mice in the model group were given physiological salt once a day 200 μl of aqueous solution. […]

melting point	IC50 [2]	bioluminescence intensity at the peak relative to the blank group ([3]; 30 min after probe injection)	bioluminescence intensity of transgenic mice at the peak ([3]; about 30 min after probe injection)	IC50 [4]	Compound	IC50 [1]	DAI score [5]
92.4 to 93.6 °C					CC(C)(CO)C(O)C(=O)NCCC(=O)Nc1ccc2c(C(F)(F)F)cc(=O)oc2c1 (centres unmarked)		
					CC(C)(CO)[C@@H](O)C(=O)NCCC(=O)Cc1ccccc1 [RR6]	0.54 µM	
113.2 to 114.7 °C	9.08 ± 0.57 µM	about one-half	significantly reduced	20.2 ± 1.32 µM	O=C(c1ccc(NCc2cccnc2)cc1)N1CCC2(CCOCC2)C1 [a, (4-((pyridin-3-ylmethyl)amino)phenyl)(8-oxa-2-azaspiro[4.5]decan-2-yl)methanone]		6.7 ± 0.95
126.1 to 126.5 °C	12.3 ± 1.28 µM			26.2 ± 0.56 µM	O=C(c1ccc(NCc2cccnc2)cc1)N1CC2(CCOCC2)C1 [b, (4-((pyridin-3-ylmethyl)amino)phenyl)(7-oxa-2-azaspiro[3.5]nonan-2-yl)methanone]		
173.4 to 173.8 °C	16.5 ± 1.92 µM			30.33 ± 0.11 µM	O=C(c1ccc(NCc2cnccn2)cc1)N1CCC2(CCOCC2)C1 [c, (4-((pyrazin-2-ylmethyl)amino)phenyl)(8-oxa-2-azaspiro[4.5]decan-2-yl)methanone]		
191.6 to 191.9 °C	15.3 ± 0.75 µM			28.5 ± 0.35 µM	O=C(c1ccc(NCc2cnccn2)cc1)N1CC2(CCOCC2)C1 [d, (4-((pyrazin-2-ylmethyl)amino)phenyl)(7-oxa-2-azaspiro[3.5]nonan-2-yl)methanone]		
176.5 to 177.2 °C	35.8 ± 2.15 µM			43.7 ± 1.07 µM	O=C(c1ccc(NCc2cccnc2)cn1)N1CCC2(CCOCC2)C1 [e, (5-((pyridin-3-ylmethyl)amino)pyridin-2-yl)(8-oxa-2-azaspiro[4.5]decan-2-yl)methanone]		
202 to 202.3 °C	22 ± 2.66 µM			46.2 ± 1.27 µM	O=C(c1ccc(NCc2cccnc2)cn1)N1CC2(CCOCC2)C1 [f, (5-((pyridin-3-ylmethyl)amino)pyridin-2-yl)(7-oxa-2-azaspiro[3.5]nonan-2-yl)methanone]		
123.6 to 124.1 °C	39.8 ± 0.91 µM			51.5 ± 1.65 µM	O=C(c1ccc(NCc2cnccn2)cn1)N1CCC2(CCOCC2)C1 [g, (5-((pyrazin-2-ylmethyl)amino)pyridin-2-yl)(8-oxa-2-azaspiro[4.5]decan-2-yl)methanone]		
104.6 to 105 °C	59.6 ± 5.27 µM			84.6 ± 2.5 µM	O=C(c1ccc(NCc2cnccn2)cn1)N1CC2(CCOCC2)C1 [h, (5-((pyrazin-2-ylmethyl)amino)pyridin-2-yl)(7-oxa-2-azaspiro[3.5]nonan-2-yl)methanone]		
128.2 to 129.6 °C	93.7 ± 8.08 µM			115 ± 13 µM	COc1cc(C(=O)N2CCC3(CCOCC3)C2)ccc1NCc1cccnc1 [i, (3-methoxy-4-((pyridin-3-ylmethyl)amino)phenyl)(8-oxa-2-azaspiro[4.5]decan-2-yl)methanone]		
136.4 to 136.9 °C	80.6 ± 6.21 µM			138.3 ± 0.68 µM	COc1cc(C(=O)N2CC3(CCOCC3)C2)ccc1NCc1cccnc1 [j, (3-methoxy-4-((pyridin-3-ylmethyl)amino)phenyl)(7-oxa-2-azaspiro[3.5]nonan-2-yl)methanone]		
